Assay results as given in PubChem BioAssay (NCI).
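Test compounds were applied to cells in 96-well plates for 48 hours at 5 doses. TGI: concentration producing complete growth inhibition.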

Columns and labels:
Assay in all cases: NCI-60 cell line screen, 48 h
A549 NSCLC = tested on: A549 NSCLC
CCRF-CEM leukemia = tested on: CCRF-CEM leukemia
COLO 205 colon = tested on: COLO 205 colon
HCC-2998 colon = tested on: HCC-2998 colon
HCT-116 colon = tested on: HCT-116 colon
HT29 colon = tested on: HT29 colon
IGROV1 ovarian = tested on: IGROV1 ovarian
LOX IMVI melanoma = tested on: LOX IMVI melanoma
M14 melanoma = tested on: M14 melanoma
OVCAR-3 ovarian = tested on: OVCAR-3 ovarian
OVCAR-5 ovarian = tested on: OVCAR-5 ovarian
OVCAR-8 ovarian = tested on: OVCAR-8 ovarian
SF-295 CNS = tested on: SF-295 CNS
SN12C renal = tested on: SN12C renal
UACC-257 melanoma = tested on: UACC-257 melanoma
UACC-62 melanoma = tested on: UACC-62 melanoma
MOLT-4 leukemia = tested on: MOLT-4 leukemia
RXF 393 renal = tested on: RXF 393 renal
T-47D breast = tested on: T-47D breast
U251 CNS = tested on: U251 CNS

Measured: TGI

OC12c3ccccc3C1CCCCCCCCCC21OCCCO1 (stereo unspecified)
not listed: MOLT-4 leukemia | RXF 393 renal | T-47D breast | U251 CNS
> 100 µM: all other assays above

CCOC(=O)c1csc(NC(=O)CN2CCCCC2)n1
not listed: HCT-116 colon | SN12C renal
> 100 µM: all other assays above

COc1cccc(N2C(=O)CSC2c2c[nH]c3ccccc23)c1 (stereo unspecified)
not listed: A549 NSCLC
> 100 µM: all other assays above

O=S(=O)(O)c1cccc2ccc(O)c(N=Nc3ccc(S(=O)(=O)c4ccc(N=Nc5c(O)ccc6cccc(S(=O)(=O)O)c56)cc4)cc3)c12
not listed: HCC-2998 colon | LOX IMVI melanoma
> 100 µM: all other assays above
